{"source": "patent US20120201868A1", "about": "“TREATMENT AND PREVENTION OF HIV INFECTION” (priority 2009, published 2012)", "key": {"[1]": {"assay": "Plasma kinetics after intravenous injection of brecanavir solution in rats", "format": "in vivo", "settings": "for clearance / AUC(0-t): rat, plasma, iv", "experimental": "FIG. 1: Individual plasma concentration (ng/ml) versus time profiles following intravenous dosing of a solution of brecanavir in rats at 2 mg/kg.\nBrecanavir was injected intraveneously as a 1 mg/ml solution (PEG400/saline 70:30) in rats (n=3) to determine the plasma kinetics of brecanavir in these animals. Plasma samples were collected from each of the rats at selected time points after administration; samples were analyzed for brecanavir concentrations with LC/MS. (See FIG. 1.)"}, "[2]": {"assay": "Plasma kinetics after single subcutaneous injection of brecanavir solution in rats", "format": "in vivo, Sprague-Dawley rats", "settings": "for bioavailability: s.c. solution, read-out: average absolute bioavailability (F)", "experimental": "FIG. 2: Individual and mean plasma concentrations of brecanavir following single subcutaneous injection of a brecanavir solution to rats at 16 (Δ) and 56 mg/kg (∘).\nSprague-Dawley rats (Crl:CD® (SD)IGS) of 200-300 g were injected once subcutaneously with an aqueous solution of brecanavir at 16 (n=4) and at 56 (n=4) mg/kg. The solution was prepared one day before dose administration; brecanavir was formulated in an aqueous 30% (w/v) DMA/50% (w/v) PEG400 solution at 35 mg/ml. The ingredients of the solution were: brecanavir, DMA 30% (w/v), PEG 400 50% (w/v) and pyrogenic free water. The content of brecanavir in the formulation was checked using LC-UV. The concentration of brecanavir in the formulation was 35 mg/ml.\nBlood samples (0.3 ml on EDTA) were collected from the rats via the tail vein at 1, 2, 4, 7 and 24 h and further at 3, 4, 8, 14, 29, 42 and 56 days after dosing. Plasma samples were analyzed for brecanavir with a qualified research method on LC/MS/MS. Plasma concentrations were plotted as a function of time after dosing (FIG. 2). Pharmacokinetic parameters were calculated using WinNonlin software. Subcutaneous injection of an aqueous solution of brecanavir in rats produced an extended release pharmacokinetic profile with duration of at least 8 weeks (FIG. 2)."}, "[3]": {"tested_on": "wild type HIV as well as mutated variants", "settings": "in words; cited from earlier work"}, "[4]": {"settings": "in vivo, po; cited from earlier work"}, "[5]": {"settings": "individual rats, i.v. solution, 2 mg/kg"}, "[6]": {"settings": "mean of n=3 rats, i.v. solution, 2 mg/kg"}, "[7]": {"settings": "2 mg/kg, mean of n=3 rats, i.v. solution"}, "[8]": {"settings": "individual rats, single s.c. solution, 16 mg/kg"}, "[9]": {"settings": "individual rats, single s.c. solution, 56 mg/kg"}}, "note": "Several values for one entry are separate records, joined by “and”; a condition that tells them apart may be missing. Identical values can stand only once. Like-named read-outs stand apart in the source and are kept apart here.", "data": [{"smiles": "Cc1nc(COc2ccc(C[C@H](NC(=O)O[C@H]3CO[C@H]4OCC[C@H]43)[C@H](O)CN(CC(C)C)S(=O)(=O)c3ccc4c(c3)OCO4)cc2)cs1", "note": "[brecanavir, [(3R,3aS,6aR)-2,3,3a,4,5,6a-hexahydro-furo[5,4-b]furan-3-yl] N-[(2S,3R)-4-(1,3-benzodioxol-5-ylsulfonyl-(2-methylpropyl)-amino)-3-hydroxy-1-[4-[(2-methyl-1,3-thiazol-4-yl)methoxy]phenyl]butan-2-yl]-carbamate]", "values": [{"measurement": "AUClast", "setting": "[1]; individual rats, i.v. solution (PEG400/saline 70:30, 1 mg/ml), 2 mg/kg", "value": "1066 ng·h/mL and 1149 ng·h/mL"}, {"measurement": "Cl", "setting": "[1]; [5]", "value": "30 mL/min/kg and 28.3 mL/min/kg"}, {"measurement": "Vc", "setting": "[1]; [5]", "value": "0.70 L/kg and 0.46 L/kg and 0.52 L/kg"}, {"measurement": "t1/2β", "setting": "[1]; [5]", "value": "2.3 h and 1.5 h (2×)"}, {"measurement": "Vc", "setting": "[1]; [6]", "value": 0.56, "unit": "L/kg"}, {"measurement": "t1/2β", "setting": "[1]; [6]", "value": 1.8, "unit": "h"}, {"measurement": "clearance", "setting": "[1]; 2 mg/kg, individual rats, i.v. solution", "value": 23.3, "unit": "mL/min/kg"}, {"measurement": "AUC(0-t)", "setting": "[1]; 2 mg/kg, individual rats, i.v. solution (PEG400/saline 70:30, 1 mg/ml), 2 mg/kg", "value": 1370, "unit": "ng·h/mL"}, {"measurement": "AUC(0-t)", "setting": "[1]; [7]", "value": 1200, "unit": "ng·h/mL"}, {"measurement": "clearance", "setting": "[1]; [7]", "value": 28.3, "unit": "mL/min/kg"}, {"measurement": "distribution volume", "setting": "[1]; rats, i.v. injection, in words", "value": "moderate to small distribution volume"}, {"measurement": "plasma clearance", "setting": "[1]; rats, i.v. injection, in words", "value": "moderate plasma clearance"}, {"measurement": "AUC(0-t)", "setting": "[2]; Sprague-Dawley (Crl:CD(SD)IGS), rat, plasma, sc, 16 mg/kg, individual rats, single s.c. solution, 16 mg/kg", "value": 6500, "unit": "ng·h/mL"}, {"measurement": "AUC(0-t)", "setting": "[2]; Sprague-Dawley (Crl:CD(SD)IGS), rat, plasma, sc, 16 mg/kg, mean of n=4 rats, single s.c. solution, 16 mg/kg", "value": 8720, "unit": "ng·h/mL"}, {"measurement": "Cmax", "setting": "[2]; Sprague-Dawley (Crl:CD(SD)IGS), rat, plasma, sc, 16 mg/kg, mean of n=4 rats, single s.c. solution, 16 mg/kg, read-out: Cmax", "value": 369, "unit": "ng/mL"}, {"measurement": "AUC(0-t)", "setting": "[2]; Sprague-Dawley (Crl:CD(SD)IGS), rat, plasma, sc, 56 mg/kg, individual rats, single s.c. solution, 56 mg/kg", "value": 29900, "unit": "ng·h/mL"}, {"measurement": "AUC(0-t)", "setting": "[2]; Sprague-Dawley (Crl:CD(SD)IGS), rat, plasma, sc, 56 mg/kg, mean of n=4 rats, single s.c. solution, 56 mg/kg", "value": 21700, "unit": "ng·h/mL"}, {"measurement": "Cmax", "setting": "[2]; Sprague-Dawley (Crl:CD(SD)IGS), rat, plasma, sc, 56 mg/kg, mean of n=4 rats, single s.c. solution, 56 mg/kg, read-out: Cmax", "value": 322, "unit": "ng/mL"}, {"measurement": "bioavailability", "setting": "[2]; Sprague-Dawley (Crl:CD(SD)IGS), rat, plasma, sc, rats, 16 mg/kg", "value": 91, "unit": "%"}, {"measurement": "bioavailability", "setting": "[2]; Sprague-Dawley (Crl:CD(SD)IGS), rat, plasma, sc, rats, 56 mg/kg", "value": 66, "unit": "%"}, {"measurement": "Cmax", "setting": "[2]; individual rats, single s.c. solution (30% DMA/50% PEG400, 35 mg/ml), 16 mg/kg", "value": "273 ng/mL and 289 ng/mL and 591 ng/mL and 234 ng/mL"}, {"measurement": "AUClast", "setting": "[2]; [8]", "value": "9630 ng·h/mL and 9291 ng·h/mL and 9448 ng·h/mL"}, {"measurement": "t1/2λz", "setting": "[2]; [8]", "value": "10.9 days and 5.58 days and 22.3 days and 17 days"}, {"measurement": "AUClast", "setting": "[2]; [9]", "value": "17602 ng·h/mL and 24284 ng·h/mL and 15221 ng·h/mL"}, {"measurement": "Cmax", "setting": "[2]; [9]", "value": "360 ng/mL and 204 ng/mL and 417 ng/mL and 305 ng/mL"}, {"measurement": "t1/2λz", "setting": "[2]; [9]", "value": "53 days and 16.2 days and 19.2 days and 44.67 days"}, {"measurement": "t1/2λz", "setting": "[2]; mean of n=4 rats, single s.c. solution, 16 mg/kg", "value": 14, "unit": "days"}, {"measurement": "t1/2λz", "setting": "[2]; mean of n=4 rats, single s.c. solution, 56 mg/kg", "value": 33.2, "unit": "days"}, {"measurement": "duration of extended release pharmacokinetic profile", "setting": "[2]; rats, s.c. aqueous solution", "value": "at least 8 weeks"}, {"measurement": "absorption into the systemic circulation", "setting": "[2]; rats, s.c. injection of a high dose solution, in words", "value": "very slow absorption"}, {"measurement": "activity against wild type HIV and mutated variants", "setting": "[3]", "value": "pronounced activity"}, {"measurement": "brecanavir exposures", "setting": "[4]", "value": "insufficient to inhibit PI-resistant virus"}]}]}
